We go through one molecule from PMC8795738, “The Tarantula Venom Peptide Eo1a Binds to the Domain II S3-S4 Extracellular Loop of Voltage-Gated Sodium Channel NaV1.8 to Enhance Activation” (Frontiers in Pharmacology, 2022).

Where a SMILES comes first, the peptide text is derived from it. Bridges are numbered along the chain shown (N, C = ends).

The test system of test [1] is NaV1.3. The test is described as follows: I-V protocol, whole-cell patch-clamp, NaV1.3. The format is cell-based, human. The settings on record: Eo1a 10 μM. How it is done: (§1) Human Embryonic Kidney (HEK) 293 cells stably expressing human NaV1.1 to NaV1.7/β1 (SB Drug Discovery, Glasgow, United Kingdom), Chinese Hamster Ovary (CHO) cells stably expressing human NaV1.8/β3 in a tetracycline-inducible system (ChanTest, Cleveland, OH, United States), and HEK293 cells stably expressing rat transient receptor potential vanilloid 1 (TRPV1) were cultured as previously described ([Yin et al., 2020]). Human KV2.1 and NaV1.7 mutants were transiently transfected into HEK293 cells stably expressing β1/β2 using Lipofectamine 2000 (Thermo Fisher Scientific, Scoresby, VIC, Australia) and used for patch-clamp experiments 48 h after transfection. Cells were grown in an incubator at 37°C with 5% CO2 and passaged every 3–4 d (at 70–80% confluency) using TrypLE Express (Thermo Fisher Scientific).
(§2) Automated whole-cell patch-clamp recordings were performed with a QPatch-16 automated electrophysiology platform (Sophion Bioscience, Ballerup, Denmark) using single-hole (QPlate 16 with a standard resistance of 2 ± 0.4 MΩ) or multi-hole (QPlate 16X with a standard resistance 0.2 ± 0.04 MΩ, NaV1.8 only) as previously described ([McMahon et al., 2020]).
The extracellular solution (ECS) consisted of (in mM) 145 NaCl (replaced with 70 choline chloride for NaV1.4, NaV1.5 and NaV1.7), 4 KCl, 2 CaCl2, 1 MgCl2, 10 HEPES, and 10 glucose, pH to 7.4 with NaOH (adjusted to 305 mOsm/L with sucrose). For NaV recordings the intracellular solution (ICS) consisted of (in mM) 140 CsF, 1 EGTA, 5 CsOH, 10 HEPES, and 10 NaCl, pH to 7.3 with CsOH (adjusted to 320 mOsm/L with sucrose). For KV2.1 recordings the ICS consisted of (in mM) 50 KCl, 60 KF, 10 EGTA, 10 HEPES, 10 NaCl pH to 7.3 with KOH (adjusted to 320 mOsm/L with sucrose). […]
(§3) The time constant of fast inactivation (τ) was computed by fitting the current decay traces with a single exponential function using QPatch Assay Software 5.6 (Sophion). The time to peak was calculated from pulse onset to peak inward current using QPatch Assay Software 5.6 (Sophion).

Test [2] has as its target T1, KV2.1 (Homo sapiens, UniProt Q14721).
T1 construct: expressed in transfected cells; host or cells: HEK293 cells stably expressing β1/β2, transient transfection with Lipofectamine 2000
T1 sequence (Q14721 1-858): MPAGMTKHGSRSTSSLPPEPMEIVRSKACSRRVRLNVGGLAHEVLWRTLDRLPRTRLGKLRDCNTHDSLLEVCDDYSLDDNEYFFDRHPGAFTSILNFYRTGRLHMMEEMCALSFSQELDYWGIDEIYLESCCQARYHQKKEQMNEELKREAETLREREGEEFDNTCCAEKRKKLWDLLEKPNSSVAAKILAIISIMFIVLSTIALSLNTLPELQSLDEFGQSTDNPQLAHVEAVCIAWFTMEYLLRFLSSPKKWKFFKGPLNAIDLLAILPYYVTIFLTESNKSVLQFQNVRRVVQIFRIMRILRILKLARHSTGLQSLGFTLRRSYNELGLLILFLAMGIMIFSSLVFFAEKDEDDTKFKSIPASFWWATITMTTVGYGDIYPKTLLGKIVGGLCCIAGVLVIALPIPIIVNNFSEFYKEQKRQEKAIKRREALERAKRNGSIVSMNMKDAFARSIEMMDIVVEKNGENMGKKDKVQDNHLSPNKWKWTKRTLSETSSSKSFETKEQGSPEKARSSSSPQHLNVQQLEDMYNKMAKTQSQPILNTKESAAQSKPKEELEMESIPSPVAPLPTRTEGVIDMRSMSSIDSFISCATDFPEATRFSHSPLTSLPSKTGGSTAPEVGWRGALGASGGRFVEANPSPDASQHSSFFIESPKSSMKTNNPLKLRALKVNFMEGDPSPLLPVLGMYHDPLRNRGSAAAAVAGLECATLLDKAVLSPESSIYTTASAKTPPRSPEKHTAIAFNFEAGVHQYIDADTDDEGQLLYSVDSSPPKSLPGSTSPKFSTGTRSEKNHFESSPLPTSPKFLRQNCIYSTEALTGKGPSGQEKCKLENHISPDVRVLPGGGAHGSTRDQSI
The test is described as follows: KV2.1 currents, whole-cell patch-clamp. The following applies: Eo1a 10 μM, 5 min, HEK293, human KV2.1, n = 3. It counts as cell-based. The method, then: as §1, §2
(§4) The extracellular solution (ECS) consisted of (in mM) 145 NaCl (replaced with 70 choline chloride for NaV1.4, NaV1.5 and NaV1.7), 4 KCl, 2 CaCl2, 1 MgCl2, 10 HEPES, and 10 glucose, pH to 7.4 with NaOH (adjusted to 305 mOsm/L with sucrose). For NaV recordings the intracellular solution (ICS) consisted of (in mM) 140 CsF, 1 EGTA, 5 CsOH, 10 HEPES, and 10 NaCl, pH to 7.3 with CsOH (adjusted to 320 mOsm/L with sucrose). For KV2.1 recordings the ICS consisted of (in mM) 50 KCl, 60 KF, 10 EGTA, 10 HEPES, 10 NaCl pH to 7.3 with KOH (adjusted to 320 mOsm/L with sucrose). TTX (1 μM) was added to the ECS for NaV1.8 recordings to inhibit background endogenous TTX sensitive current in CHO cells.
KV2.1 currents were acquired using a holding potential of −80 mV and a 300 ms pulse to +50 mV every 20 s (0.05 Hz). Eo1a was incubated for 5 min and compared to buffer control.
In general terms: Patch clamp records ionic current or voltage across a cell membrane.

The test system of test [3] is NaV1.1. The test is described as follows: I-V protocol, whole-cell patch-clamp, NaV1.1. It counts as cell-based, human. The settings on record: Eo1a 10 μM. The method, then:
as §1, §2, §4
I-V curves were obtained with a holding potential of −90 mV followed by a series of 500 ms step pulses that ranged from −110 to +80 mV in 5-mV increments (repetition interval 5 s) before and after 5 min incubation with Eo1a (10 μM). Conductance-voltage (G-V) curves were obtained by calculating the conductance (G) at each voltage (V) using equation G = I/(V − V rev ), where V rev is the reversal potential. G-V curves were fitted with a Boltzmann equation. […]
as §3

As to `CC[C@H](C)[C@@H]1NC(=O)[C@H](CCCNC(=N)N)NC(=O)[C@@H]2CSSC[C@@H]3NC(=O)CNC(=O)CNC(=O)[C@H](CC(C)C)NC(=O)[C@H](Cc4ccccc4)NC(=O)[C@H](Cc4c[nH]c5ccccc45)NC(=O)[C@H](CCCNC(=N)N)NC(=O)[C@@H](NC(=O)[C@@H](N)CC(=O)O)CSSC[C@H](NC(=O)[C@H](CSSC[C@@H](C(=O)N[C@@H](C)C(=O)N[C@@H](Cc4c[nH]c5ccccc45)C(=O)N[C@@H](CC(=O)O)C(=O)NCC(=O)N[C@H](C(=O)N[C@@H](Cc4ccccc4)C(N)=O)[C@@H](C)O)NC(=O)[C@H](Cc4ccc(O)cc4)NC(=O)[C@H](CCCCN)NC(=O)[C@H]([C@@H](C)CC)NC(=O)[C@H](Cc4ccc(O)cc4)NC(=O)CNC(=O)[C@H](CC(=O)O)NC1=O)NC(=O)[C@H](CC(=O)O)NC(=O)[C@H](CO)NC(=O)[C@H](CC(=O)O)NC(=O)[C@H](CCCCN)NC(=O)[C@H](CO)NC3=O)C(=O)N[C@@H](CCCCN)C(=O)N[C@@H](Cc1c[nH]cn1)C(=O)N[C@@H](CC(C)C)C(=O)N[C@@H](C)C(=O)N2` [Eo1a] (H-DCRWFLGGCSKDSDCCKHLACRIDGYIKYCAWDGTF-NH2; disulfide 2-16, 9-21, 15-30 (inferred); N-terminus assumed), the V1/2 activation in test [1] (5 min, control −20.4 ± 2.2 mV, *p < 0.05, mean ± SEM, n = 4–6) is recorded as −27.9 mV; in test [3] (NaV1.1, 5 min, control −21.5 ± 1.5 mV, mean ± SEM, n = 4–6), −24.4 ± 2.1 mV. Moreover, the “V1/2 inactivation (steady-state fast inactivation)” value in test [1] (5 min, control −63.2 ± 1.0 mV, mean ± SEM, n = 4–6) is given as −63.0 ± 1.5; in test [3] (NaV1.1, 5 min, control −55.0 ± 1.1 mV, mean ± SEM, n = 4–6), −57.8 ± 2.0. For the same molecule, the “effect on inactivation kinetics” value in test [1] (test pulse −20 mV) is given as “minimal effect”; in test [3] (NaV1.1, test pulse −20 mV) it was “minimal effect”. In addition, in test [2] (300 ms pulse to +50 mV, buffer 5.1 ± 0.4 ms), the “τactivation of KV2.1” value came to 13.6 ± 2.7 ms. The “late current size of KV2.1, I250 ms” value in test [2] (holding −80 mV, 300 ms pulse to +50 mV, buffer 6.25 ± 0.9 nA) came to 6.34 ± 0.9 nA. Further, in test [2], the “KV2.1 late current, inhibitory activity” value is given as “no inhibitory activity”. Besides, the “peak current I/I0” value in test [3] (5 min, peak from I-V protocol at any voltage, normalised to buffer control, HEK293 hNaV1.1/β1, mean ± SEM, n = 4–6 cells) is recorded as 0.89 ± 0.03.
